Reference: patent US20090076172A1, “Prolonged Deactivation” (priority 2004, published 2009)

Target: T1, Der p1 allergen (Dermatophagoides pteronyssinus, UniProt P08176)
T1 construct: House dust was passed through a number of sieves and the fraction smaller than 53 μm was collected; from tissue; host or cells: house dust (sieved fraction smaller than 53 μm)
Assay: Der p1 allergen reduction in house dust after vapour exposure in a booth (ELISA)
Settings: 0.8 ml β-pinene on 6 ml water vaporised by oil burner, house dust on PTFE tray, vs pre-treatment control
From the text: When using house dust for allergen denaturing tests an inherent difficulty is the variability of the amount of allergen in each small sample, even when taken from the same dust reservoir. The amount of dust in the pre-treatment sample must be accurately estimated in order to determine the extent of any allergen denaturing. In these tests the dust sample was applied to the test exposure surface and then one half of this surface dust was removed to measure the control pre-treatment allergen level of that specific sample. Each control was directly relevant to each sample, which gave the best possible estimate of the level of allergen in the sample before exposure to possible denaturant. All tests employed a glass reinforced plastic booth of size 0.7 m×0.7 m×1.0 m. All tests had 5 or 6 replicates. Average values are stated.
The following Examples all measure the reduction of the house dust mite Dermatophagoides pteronyssinus allergen—Der p1.
House dust was passed through a number of sieves and the fraction smaller than 53 μm was collected. 0.025 g of dust was placed in a small sieve to distribute it evenly over the test surface. The test surface was a PTFE (polytetrafluoroethylene—trade mark TEFLON) coated metal tray of size 30 cm×30 cm. The dust was applied to the tray by moving the sieve continuously over the surface while tapping the sieve. One half of the dust was then removed by suction onto an in-line filter and the weight recorded, this was the pre-treatment control. The tray was then placed in the booth. An oil burner containing 0.8 ml of β-pinene floated on 6ml of distilled water was placed in the booth, and the booth was sealed. The oil burner candle was lit and allowed to burn, under the oil/water until all the liquid had been vaporised (approximately 30 minutes). The candle was then smothered. After 24 hours the tray was removed, the dust was collected from it and its weight recorded. The booth was washed with strong detergent between tests.
The test samples were assayed for the Der p1 allergen using an ELISA (enzyme linked immunosorbent assay) to determine the allergen content. This was then related to the weight of dust that had been present in each sample. All of the samples were multiplied up to compare the amount of allergen expected to be present in a 0.1 g sample of dust. The percentage difference between the control sample and the exposed sample was then obtained. One analysis was carried out on week 0 (24 hours after the tests were completed. Another analysis was carried out after 2 weeks.
Corresponding tests were carried out and the same ELISA analysis carried out at Week 0 and after 4 weeks.

T1 sequence (P08176 99-320): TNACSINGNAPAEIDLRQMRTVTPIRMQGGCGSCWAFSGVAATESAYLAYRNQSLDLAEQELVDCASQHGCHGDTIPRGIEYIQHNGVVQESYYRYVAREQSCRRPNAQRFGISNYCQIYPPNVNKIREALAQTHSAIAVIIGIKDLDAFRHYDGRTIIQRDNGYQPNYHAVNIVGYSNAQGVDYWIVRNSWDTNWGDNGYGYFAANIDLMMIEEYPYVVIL

## C=C1CCC2CC1C2(C)C (stereo not drawn) [β-pinene]
Corresponding (second) test series, Week 0
  Der p1 allergen reduction: Week 0-77.5%
Corresponding (second) test series, Week 4 (analysis after 4 weeks)
  Der p1 allergen reduction: Week 4-91.6%
First test series, Week 0 (24 hours after the tests were completed)
  Der p1 allergen reduction: Week 0-68.0%
First test series, Week 2 (analysis after 2 weeks)
  Der p1 allergen reduction: Week 2-66.3%
